We go through 7 molecules from article PMC4944999 (PLoS ONE, 2016).

In data set [1] the test system is Recombinant neuraminidase of Influenza A virus (A/Aichi/2/1968, H3N2). In kind it is biochemical.
Data set [2] deals with T1, HA from Aichi H3N2 (Influenza A virus, UniProt P03437).
T1 construct: purchased Sino Biological 11707-V08H
As to the kind of experiment: biochemical. Type of data set: binding, Influenza A/Aichi/2/68 H3N2.

The test system of data set [3] is Aichi H3N2 binding to fetuin. The experiment in a line: SPR inhibition of virus binding to immobilized fetuin. The arrangement: species or system Influenza A/Aichi/2/68 H3N2. Conditions: Aichi H3N2 binding to fetuin-immobilized SPR surface, virus preincubated with inhibitor 37°C at least 15 min, four parameter logistic fit, mean ± SEM n≥2. As to the method:
Measurements were performed on a Biacore™ T200 (GE-Healthcare Bio-Sciences AB) using CM5 chips, and running buffer HBSP (10 mM Hepes, 150 mM NaCl, 0.05% Tween 20, pH 7.4) at 25°C. Peptides and proteins were immobilized via amine coupling with EDC/NHS at a flow rate of 10 μl min^-1, according to the manufacturer’s instructions (GE Healthcare). Optimum preconcentration was evaluated before, using acetate and phosphate buffers (10 mM) of pH 4 to 7, and ligand concentrations of 10 μg ml^-1. For the immobilization of biotinylated sialyllactose (Lectinity), neutravidin (Thermo Fisher Scientific) (100 μg ml^-1) was immobilized by amine coupling at pH 5.5 enabling high ligand density. Biotinylated sialyllactose was then injected at a concentration of 10 μg ml^-1 in HBSP for 3 min.
A constant concentration of 50 or 100 μg ml^-1 Aichi H3N2 virus was used as analyte, while the concentration of the inhibitors was varied. The suspensions of virus and inhibitor were mixed and subsequently incubated on a Thriller® thermoshaker at 500 rpm and 37°C for at least 15 min to reach equilibrium before injection on the SPR surface. The inhibitors used were peptides or α-2,3’- and α-2,6’-sialyllactose (Carbosynth). […] Inhibition was calculated against the mean value of at least five binding events with the virus alone, using the sigmoidal four parameter logistic fit (Origin).

The subject of data set [4] is Aichi H3N2 virus. In kind it is binding, Influenza A/Aichi/2/68 H3N2 X31. Particulars: for Virus binding on peptide-modified surfaces: pH 7.4.
Data set [5] has as its system Aichi H3N2. Type of data set: cell-based, Influenza A/Aichi/2/68 H3N2.
The conditions of data set [6]: due to its amphiphilic character; cited from earlier work.
For data set [7], the target named is hemagglutinin (HA) of low pathogenic influenza A/Mute Swan/Rostock/R901/2006 H7N1 K3141, on virus particles (influenza A virus A/Mute Swan/Rostock/R901/2006 H7N1).
Data set [8] shares this target. The experiment in a line: SPR.

Counter-ions that a name gives are not always drawn. Where no end group is shown, it is not given here.

The IC50 is the concentration at which inhibition is half-maximal. As to `CC(=O)N[C@H]1[C@H]([C@H](O)[C@H](O)CO)OC(C(=O)O)=C[C@@H]1O` [DANA, N-acetyl-2,3-dehydro-2-deoxy-neuraminic acid disodium salt], the half-inhibitory concentration (IC50) in data set [1] came out at 2200 ± 300 nM.

As usually defined, the Kd is the equilibrium constant for the complex coming apart. A higher Kd goes with lower affinity. In data set [2], ARDFYDYDVFYYAMD-NH2 [PeB] displayed a Kd of 56.8 µM. The 50% inhibitory concentration (IC50) stood at 75 ± 13 µM in data set [3] and 13 ± 3 µM in data set [3] (listed as PeB^GF).

In the case of LGVIWAGGNTNY [PeC], in data set [4], the “Minimum detection level (lowest virus concentration showing binding 3 times above the SPR response of a buffer control)” value is 6.25 μg Aichi H3N2 virus protein ml^-1 and the “Virus binding on peptide-modified surfaces” value is recorded as “Significant virus binding”.

On to RRKKAAVALLPAVLLALLAP [EB], for which, in data set [5], the “fold lower Ki(HAI) as compared to PeB^GF” value came to 20 fold. The Micelle formation result in data set [6] is “forms micelles”.

On to SGFLLISNGVHWV-NH2 [PeA], for which, in data set [4], the “Virus binding on peptide-modified surfaces” value is “not”.

With ARDFYGYDVFFYAMD-NH2 [PeB^GF (…-amide)], the IC50 of microneutralization of Rostock H7N1 on MDCK II cells in data set [7] amounted to 96 µM. In data set [8], this molecule returned a half-inhibitory concentration (IC50) of 30 µM.

With ARDFYDYDVFYYAMD-NH2 [PeB (…-amide)], the IC50 of microneutralization of Rostock H7N1 on MDCK II cells in data set [7] is 177 µM. The same molecule registered an IC50 in data set [8] of 40 µM.
